This note sets out measurements from the Kinase Knowledgebase extract (Sharma et al. 2016).

In this test the target is PIK3CB;PIK3CG;PIK3CD;PIK3CA (human) (UniProt P48736). Kind of test: Enzyme Assay.

For the compound `O=C(c1nn(C2CCOCC2)c2c1CS(=O)(=O)c1ccccc1-2)N1CCOCC1`, the IC50 is 223 nM.

`O=C(c1nn(C2CCOCC2)c2c1CS(=O)(=O)c1c(F)cccc1-2)N1CCOCC1` showed an IC50 of 1030 nM. Regarding `O=C(c1nn([C@H]2CCCN(CC3CCOCC3)C2)c2c1CS(=O)(=O)c1ccccc1-2)N1CCOCC1`, the IC50 stood at 25 nM. To `O=C(c1nn(C2CCCOC2)c2c1CS(=O)(=O)c1ccccc1-2)N1CCOCC1` (stereo not given) belongs 326 nM; to `COc1cccc2c1S(=O)(=O)Cc1c(C(=O)N3CCOCC3)nn([C@H]3CCCN(CCN4CC(F)(F)C4)C3)c1-2`, 40 nM. To `O=C(c1nn(-c2cccc(-c3ncon3)c2)c2c1CS(=O)(=O)c1ccccc1-2)N1CCOCC1` belongs 6690 nM; to `O=C(c1nn(-c2ccccc2)c2c1CS(=O)(=O)c1c(F)cccc1-2)N1CCOCC1`, 424 nM. With `O=C(c1nn(-c2cccc(CN3CCCCC3)c2)c2c1CS(=O)(=O)c1ccccc1-2)N1CCOCC1` the figure was 394 nM. `O=C(c1nn(CC2CCCC2)c2c1CS(=O)(=O)c1ccccc1-2)N1CCOCC1`: the IC50 was 247 nM. Take `O=C(O)c1nn(-c2ccc(CN3CCOCC3)cc2)c2c1CS(=O)(=O)c1ccccc1-2`: the IC50 amounted to 4040 nM. With `O=C(c1nn(-c2ccc(CN3CCC(F)(F)CC3)cc2)c2c1CS(=O)(=O)c1ccccc1-2)N1CCOCC1`, the IC50 was determined as 230 nM. To `COc1ccc(Cn2nc(C(=O)N3CCOCC3)c3c2-c2ccccc2S(=O)(=O)C3)cc1` belongs 459 nM; to `O=C(c1nn([C@H]2CCCN(CCN3CC(F)(F)C3)C2)c2c1CS(=O)(=O)c1ccccc1-2)N1CCOCC1`, 17 nM.

Compound `COc1cccc2c1S(=O)(=O)Cc1c(C(=O)N3CCOCC3)nn([C@H]3CCCN(CCN4CCOCC4)C3)c1-2` gave an IC50 of 59 nM. With `Cn1nc(C(=O)N2CCOCC2)c2c1-c1cccc(Br)c1S(=O)(=O)C2` the figure was 1090 nM. The compound `O=C(c1nn([C@H]2CCCN(CCn3ccnc3)C2)c2c1CS(=O)(=O)c1ccccc1-2)N1CCOCC1` gave an IC50 of 5600 nM. With `O=C(c1nn(C2CCN(CCCl)C2)c2c1CS(=O)(=O)c1ccccc1-2)N1CCOCC1` (stereo not given) the figure was 305 nM; with `COCCOc1cccc(-n2nc(C(=O)N3CCOCC3)c3c2-c2ccccc2S(=O)(=O)C3)c1`, 726 nM. To `O=C(c1nn(C2CCN(CCn3ccnc3)C2)c2c1CS(=O)(=O)c1ccccc1-2)N1CCOCC1` (stereo not given) belongs 166 nM; to `CC1COCCN1C(=O)c1nn(-c2ccccc2)c2c1CS(=O)(=O)c1ccccc1-2` (stereo not given), 13900 nM. In the case of `O=C(c1nn(C2CCOCC2)c2c1CS(=O)(=O)c1c(Cl)cccc1-2)N1CCOCC1`, the IC50 came out at 673 nM. With `O=C(c1nn(C2CCCN(CC3CCOCC3)C2)c2c1CS(=O)(=O)c1ccccc1-2)N1CCOCC1` (stereo not given) the figure was 11 nM; with `O=C(c1nn(-c2ccccc2)c2c1CS(=O)(=O)c1ccc(CN3CCOCC3)cc1-2)N1CCOCC1`, 1620 nM. Regarding `O=C(c1nn(-c2ccc(CN3CCCC(F)(F)C3)cc2)c2c1CS(=O)(=O)c1ccccc1-2)N1CCOCC1`, the IC50 was 355 nM. In turn, `O=C(c1nn(CC2CCNCC2)c2c1CS(=O)(=O)c1ccccc1-2)N1CCOCC1` displayed a 50% inhibitory concentration (IC50) of 531 nM. With `CN(C)CCn1nc(C(=O)N2CCOCC2)c2c1-c1ccccc1S(=O)(=O)C2` the figure was 1500 nM. In turn, `COCCCN1CCCC(n2nc(C(=O)N3CCOCC3)c3c2-c2ccccc2S(=O)(=O)C3)C1` (stereo not given) displayed an IC50 of 140 nM. Compound `NCCCC1c2c(C(=O)N3CCOCC3)nn(-c3ccccc3)c2-c2ccccc2S1(=O)=O` (stereo not given) came in with an IC50 of 4520 nM. To `O=C(c1nn(C2CCCCCC2)c2c1CS(=O)(=O)c1ccccc1-2)N1CCOCC1` belongs 469 nM. Regarding `CCn1nc(C(=O)N2CCOCC2)c2c1-c1ccccc1S(=O)(=O)C2`, the IC50 stood at 601 nM. With `O=C(c1nn(C2CCN(CCC3CCOCC3)C2)c2c1CS(=O)(=O)c1c(F)cccc1-2)N1CCOCC1` (stereo not given) the figure was 21 nM; with `O=C(c1nn(-c2ccccc2)c2c1CS(=O)(=O)c1ccc(F)cc1-2)N1CCOCC1`, 987 nM; with `COc1ccc2c(c1)S(=O)(=O)Cc1c(C(=O)N3CCOCC3)nn([C@H]3CCCN(CCN4CCC(F)CC4)C3)c1-2`, 19 nM.

Turning to `O=C(c1nn(C2CCCN(CCF)C2)c2c1CS(=O)(=O)c1ccccc1-2)N1CCOCC1` (stereo not given), the IC50 came out at 320 nM. For the compound `O=C(c1nn([C@H]2CCN(CCN3CCC(F)CC3)C2)c2c1CS(=O)(=O)c1ccccc1-2)N1CCOCC1`, the IC50 was found to be 55 nM. Regarding `COC(=O)c1ccc(Cn2nc(C(=O)N3CCOCC3)c3c2-c2ccccc2S(=O)(=O)C3)o1`, the IC50 was found to be 431 nM.

For `O=C(c1nn(-c2ccc(CNC3CCOC3)cc2)c2c1CS(=O)(=O)c1ccccc1-2)N1CCOCC1` (stereo not given), the IC50 was determined as 156 nM.

For `O=C(CC1CCOCC1)N1CCC[C@H](n2nc(C(=O)N3CCOCC3)c3c2-c2ccccc2S(=O)(=O)C3)C1`, the IC50 amounted to 345 nM. With `CN1CCCC1CCn1nc(C(=O)N2CCOCC2)c2c1-c1ccccc1S(=O)(=O)C2` (stereo not given) the figure was 1230 nM. With `O=C(c1nn(C2CCN(CCO)CC2)c2c1CS(=O)(=O)c1ccccc1-2)N1CCOCC1`, the IC50 turned out to be 1760 nM.

As for `COCCNC(=O)c1cccc(-n2nc(C(=O)N3CCOCC3)c3c2-c2ccccc2S(=O)(=O)C3)c1`, the IC50 was found to be 1110 nM. With `O=C(c1nn(C2CCCN(CCCn3cccc3)C2)c2c1CS(=O)(=O)c1ccccc1-2)N1CCOCC1` (stereo not given) the figure was 90 nM; with `O=C(c1nn(C2CCN(CC3CCOC3)C2)c2c1CS(=O)(=O)c1c(F)cccc1-2)N1CCOCC1` (stereo not given), 57 nM; with `Cc1noc(-c2cccc(-n3nc(C(=O)N4CCOCC4)c4c3-c3ccccc3S(=O)(=O)C4)c2)n1`, 2690 nM. To `Cc1nc2ccc(-n3nc(C(=O)N4CCOCC4)c4c3-c3ccccc3S(=O)(=O)C4)cc2s1` belongs 662 nM.

`O=C(c1nn(C2CCCCC2)c2c1CS(=O)(=O)c1ccsc1-2)N1CCOCC1`: the half-inhibitory concentration (IC50) is 212 nM.

`O=C(CCN1CCC[C@H](n2nc(C(=O)N3CCOCC3)c3c2-c2ccccc2S(=O)(=O)C3)C1)N1CC(F)(F)C1`: the concentration for half-maximal inhibition (IC50) stood at 39 nM.

For the compound `O=C(c1nn([C@H]2CCN(CCC3CCOCC3)C2)c2c1CS(=O)(=O)c1c(F)cccc1-2)N1CCOCC1`, the IC50 was 92 nM. To `CC1CCC(n2nc(C(=O)N3CCOCC3)c3c2-c2ccccc2S(=O)(=O)C3)CC1` (stereo not given) belongs 426 nM; to `O=C(c1nn(-c2ccc(-c3ccccc3)cc2)c2c1CS(=O)(=O)c1ccccc1-2)N1CCOCC1`, 10300 nM; to `Nc1ccc2c(c1)S(=O)(=O)Cc1c(C(=O)N3CCOCC3)nn(-c3ccccc3)c1-2`, 1130 nM. With `Cn1cc(-n2nc(C(=O)N3CCOCC3)c3c2-c2ccsc2S(=O)(=O)C3)ccc1=O` the figure was 2690 nM. Compound `O=C(c1nn(CCO)c2c1CS(=O)(=O)c1ccccc1-2)N1CCOCC1` gave an IC50 of 661 nM. To `O=C(c1nn(-c2cccc(-c3cccnc3)c2)c2c1CS(=O)(=O)c1ccccc1-2)N1CCOCC1` belongs 280 nM; to `COc1cccc(Cn2nc(C(=O)N3CCOCC3)c3c2-c2ccccc2S(=O)(=O)C3)c1`, 1170 nM; to `O=C(c1cccc(-n2nc(C(=O)N3CCOCC3)c3c2-c2ccccc2S(=O)(=O)C3)c1)N1CCS(=O)(=O)CC1`, 319 nM. The compound `CC(C)(C)OC(=O)N1CCCC(n2nc(C(=O)N3CCOCC3)c3c2-c2ccccc2S(=O)(=O)C3)CC1` (stereo not given) had a concentration for half-maximal inhibition (IC50) of 824 nM. With `COc1ccc(C(=O)Cn2nc(C(=O)N3CCOCC3)c3c2-c2ccccc2S(=O)(=O)C3)cc1` the figure was 14500 nM. With `O=C(c1nn(-c2ccc(CN3CCOCC3)nc2)c2c1CS(=O)(=O)c1ccccc1-2)N1CCOCC1` the figure was 614 nM. Consider `O=C(c1nn(CCCO)c2c1CS(=O)(=O)c1ccccc1-2)N1CCOCC1`, for which the IC50 worked out at 2250 nM.

Turning to `O=C(c1nn([C@H]2CCCN(CCN3CCC(O)CC3)C2)c2c1CS(=O)(=O)c1ccccc1-2)N1CCOCC1`, the IC50 was 18 nM.

With `Cn1nc(C(=O)N2CCOCC2)c2c1-c1cccc(F)c1S(=O)(=O)C2`, the IC50 worked out at 687 nM.

In turn, `O=C(c1nc(-c2ccccc2)n2c1CS(=O)(=O)c1ccccc1-2)N1CCOCC1` returned an IC50 of 2740 nM. With `CC1CN(C(=O)c2nn(-c3ccccc3)c3c2CS(=O)(=O)c2ccccc2-3)CCO1` (stereo not given) the figure was 2160 nM. Consider `CC(C)(C)OC(=O)N1CCC(Cn2nc(C(=O)N3CCOCC3)c3c2-c2ccccc2S(=O)(=O)C3)CC1`, for which the IC50 came out at 495 nM. `CS(=O)(=O)N1CCCC(n2nc(C(=O)N3CCOCC3)c3c2-c2ccccc2S(=O)(=O)C3)C1` (stereo not given) came in with an IC50 of 994 nM. To `O=C(c1nn([C@@H]2CCN(C3CCOCC3)C2)c2c1CS(=O)(=O)c1ccccc1-2)N1CCOCC1` belongs 45 nM; to `O=C(c1nn(Cc2cc(Cl)cs2)c2c1CS(=O)(=O)c1ccccc1-2)N1CCOCC1`, 624 nM; to `COc1ccc2c(c1)S(=O)(=O)Cc1c(C(=O)N3CCOCC3)nn([C@H]3CCCN(CC4CCOC4)C3)c1-2` (stereo not given in full), 44 nM.

Consider `O=C(NC1CCOCC1)c1cccc(-n2nc(C(=O)N3CCOCC3)c3c2-c2ccccc2S(=O)(=O)C3)c1`, for which the IC50 amounted to 1260 nM. To `Cn1cc(-c2cccc(-n3nc(C(=O)N4CCOCC4)c4c3-c3ccccc3S(=O)(=O)C4)c2)cn1` belongs 184 nM. In turn, `O=C(c1nn(-c2ccccc2)c2c1C(CC1CC1)S(=O)(=O)c1ccccc1-2)N1CCOCC1` (stereo not given) had an IC50 of 3900 nM.

Consider `O=C(c1nn(C2CCCC2)c2c1CS(=O)(=O)c1ccccc1-2)N1CCOCC1`, for which the IC50 turned out to be 205 nM.

Compound `O=C(c1nn([C@H]2CCCN(CCF)C2)c2c1CS(=O)(=O)c1ccccc1-2)N1CCOCC1` yielded an IC50 of 200 nM. To `O=C(c1nn(-c2cccc(CN3CCC(F)(F)CC3)c2)c2c1CS(=O)(=O)c1ccccc1-2)N1CCOCC1` belongs 560 nM; to `O=C(c1nn([C@@H]2CCCN(CCC3CCOCC3)C2)c2c1CS(=O)(=O)c1c(F)cccc1-2)N1CCOCC1`, 1920 nM. With `O=C(c1nn(C2CCOC2)c2c1CS(=O)(=O)c1c(F)cccc1-2)N1CCOCC1` (stereo not given) the figure was 353 nM; with `NCc1ccc(-n2nc(C(=O)N3CCOCC3)c3c2-c2ccccc2S(=O)(=O)C3)cc1`, 349 nM. The compound `O=C(c1nn(C2CCCC(C(=O)N3CCCCC3)C2)c2c1CS(=O)(=O)c1ccccc1-2)N1CCOCC1` (stereo not given) came in with an IC50 of 362 nM. Compound `CN1CCC(N2CCC[C@H](n3nc(C(=O)N4CCOCC4)c4c3-c3ccccc3S(=O)(=O)C4)C2)CC1` came in with an IC50 of 28 nM.
